In patent US4339576A, “Anti-asthmatic, anti-allergic, anti-cholinergic, bronchodilator and anti-inflammatory 1-[(benzoylphenyl)-lower-alkyl]piperidines and analogs thereof” (Sterling Drug Inc., priority 1981, dated 1982):
Where a name gives a salt, the structure may show the parent alone. Read-outs that look alike come from different tables or passages of the source.

Tests used:
[1] = test system: carrageenin-induced foot edema; assay: Inhibition of carrageenin-induced foot edema (C.E.); assay type: in vivo, rats; conditions: Rattus norvegicus, read-out: percent inhibition, C.E.
[2] = Toxicity observations in the carrageenin edema test; assay type: in vivo; conditions: C.E. test, .324 millimoles/kg, oral, rats; for dead: animals dead
Experimental: Anti-inflammatory activity was determined using (1) the inhibition of carrageenin-induced foot edema test described by Winter et al., Proc. Soc. […] Therap. […] J. Vet.
All data were obtained on oral administration in rats.

[3] = test system: adjuvant-induced arthritis; assay: Inhibition of adjuvant-induced arthritis (A.A.); assay type: in vivo; conditions: Rattus norvegicus, oral, rats, read-out: percent inhibition, A.A.; for inhibition in vivo at 80 µmol/kg: .08 millimoles/kg; for inhibition in vivo at 40 µmol/kg: .04 millimoles/kg; for inhibition in vivo at 324 µmol/kg: .324 millimoles/kg
[4] = test system: passive cutaneous anaphylaxis; assay: Passive cutaneous anaphylaxis test (PCA); assay type: in vivo; design: key: Actv.: active; Weak: weakly active; Inac.: inactive; conditions: rats
[5] = test system: acetylcholine-induced abdominal constriction; assay: Acetylcholine-induced abdominal constriction test (Ach); assay type: in vivo, mice; conditions: Mus musculus
bradykinin = assay: Anti-bradykinin test (BDK); assay type: in vivo; conditions: po
human basophils = assay: In vitro histamine release from human basophils test; assay type: cell-based; conditions: for EC50: read-out: AEC50 (Approximate Effective Concentration resulting in 50% inhibition of allergic release of histamine)
[6] = test system: histamine induced bronchoconstriction; assay: Histamine induced bronchoconstriction test in anesthetized dogs; assay type: in vivo; conditions: intraduodenally; for ED40: Canis lupus familiaris, intraduodenal, read-out: AED40 (Approximate Effective Dose resulting in 40% inhibition of bronchoconstriction)
[7] = test system: guinea pig tracheal contractions by barium; assay: Relaxation of guinea pig tracheal contractions by barium; conditions: guinea pig trachea
[8] = test system: guinea pig tracheal contractions by carbachol; assay: Relaxation of guinea pig tracheal contractions by carbachol; conditions: guinea pig trachea, read-out: EC50 (effective concentration to produce 50% relaxation), Carb

Row | Compound | inhibition in vivo at 80 µmol/kg ([1]; .08 millimoles/kg, oral, rats) [%] | inhibition in vivo at 80 µmol/kg [3] [%] | inhibition in vivo at 324 µmol/kg ([1]; .324 millimoles/kg, oral, rats) [%] | PCA activity (qualitative statement) [4] | ED50 ([5]; po) [mg/kg] | other results
1 | CC(C(=O)N1CCC(CN2CCCCC2)CC1)c1cccc(C(=O)c2ccccc2)c1 (stereo not drawn) [Example 1A, 1-[α-(3-benzoylphenyl)propionyl]-4-(1-piperidinylmethyl)piperidine] | 14 | – | – | – | – | Toxic (result in words) [2]: Toxic; dead [2]: 6/8
2 | CC(C(=O)N1CCCCC1CN1CCOCC1)c1cccc(C(=O)c2ccccc2)c1 (stereo not drawn) [Example 1B, 1-[α-(3-Benzoylphenyl)propionyl]-2-(4-morpholinylmethyl)piperidine hydrochloride] | 9 | 0 | 67 | – | – | –
3 | CC(C(=O)N1CCC(CN2CCOCC2)CC1)c1cccc(C(=O)c2ccccc2)c1 (stereo not drawn) [Example 1C, 1-[α-(3-Benzoylphenyl)propionyl]-4-(4-morpholinylmethyl)piperidine hydrochloride] | 18 | 30 | 61 | – | – | –
4 | CC(C(=O)N1CCCC(CN2CCOCC2)C1)c1cccc(C(=O)c2ccccc2)c1.Cl (stereo not drawn) [Example 1D, 1-[α-(3-Benzoylphenyl)propionyl]-3-(4-morpholinylmethyl)piperidine hydrochloride] | 0 | 37 | 65 | Actv. | – | –
5 | CC(C(=O)N1CCCCC1CN1CCCCC1)c1cccc(C(=O)c2ccccc2)c1 (stereo not drawn) [Example 1E, 1-[α-(3-Benzoylphenyl)propionyl]-2-(1-piperidinylmethyl)piperidine] | – | – | – | – | – | inhibition in vivo at 80 µmol/kg ([1]; po): 11%; inhibition in vivo at 324 µmol/kg ([1]; po): 67%
6 | CC(C(=O)N1CCCC(CN2CCCCC2)C1)c1cccc(C(=O)c2ccccc2)c1 (stereo not drawn) [Example 1F, 1-[α-(3-Benzoylphenyl)propionyl]-3-(1-piperidinylmethyl)piperidine hydrochloride] | 20 | – | – | Actv. | – | Toxic (result in words) [2]: Toxic; dead [2]: 5/8
7 | CC(CN1CCC(CN2CCCCC2)CC1)c1cccc(C(=O)c2ccccc2)c1 (stereo not drawn) [Example 2, 1-[2-(3-benzoylphenyl)propyl]-4-(1-piperidinylmethyl)piperidine dihydrochloride] | 47 | 95 | 64 | – | 22 | ED50 ([5]; sc): 11 mg/kg; inhibition in vivo at 20 µmol/kg ([3]; .02 millimoles/kg): 59%; inhibition in vivo at 40 µmol/kg [3]: 67%; inhibition in vivo at 324 µmol/kg [3]: 9%; ED50 (bradykinin): 24 mg/kg
8 | CC(=O)NC1CCN(CC(C)c2cccc(C(=O)c3ccccc3)c2)CC1.Cl (stereo not drawn) [Example 3A, 1-[2-(3-benzoylphenyl)propyl]-4-acetylaminopiperidine hydrochloride] | 29 | 75 | 58 | – | 3.6 | ED50 (bradykinin): 24 mg/kg; dead [2]: 2/8
9 | CC(CN1CCC(N2CCCCC2)CC1)c1cccc(C(=O)c2ccccc2)c1.Cl.Cl (stereo not drawn) [Example 3B, 1-[2-(3-Benzoylphenyl)propyl]-4-(1-piperidinyl)piperidine dihydrochloride] | 67 | – | 74 | – | 7.4 | ataxic ([2]; animals affected): 1/8; hypothermia ([2]; animals affected): 8/8; dead [2]: 1/8
10 | CC(=O)NC1CCN(CC(C)c2ccc(C(=O)c3ccccc3)cc2)CC1.Cl.O (stereo not drawn) [Example 3C, 1-[2-(4-Benzoylphenyl)propyl]-4-acetylaminopiperidine hydrochloride monohydrate] | 41 | 19 | 53 | Inac. | 5.6 | EC50 (human basophils): > 10000 nM; ED50 (bradykinin): 46 mg/kg; ED40 [6]: ~5 mg/kg
11 | CC(CN1CCC(N2CCCCC2)CC1)c1ccc(C(=O)c2ccccc2)cc1 (stereo not drawn) [Example 3D, 1-[2-(4-Benzoylphenyl)propyl]-4-(1-piperdinyl)piperidine dihydrochloride] | 42 | 86 | 46 | Inac. | 29 | EC50 (human basophils): 90000 nM; AED40 (Approximate Effective Dose resulting in 40% inhibition of bronchoconstriction) [6]: Inac.
12 | CC(=O)N(C)C1CCN(CC(C)c2ccc(C(=O)c3ccccc3)cc2)CC1.Cl (stereo not drawn) [Example 3G, 1-[2-(4-Benzoylphenyl)propyl]-4-(N-acetyl-N-methylamino)piperidine hydrochloride] | – | – | – | – | – | Ba (active or inactive) [7]: Inact.; EC50 [8]: 340 nM
13 | CC(c1cccc(C(=O)c2ccccc2)c1)N1CCC(CN2CCOCC2)CC1 (stereo not drawn) [Example 4A, 1-[1-(3-benzoylphenyl)ethyl]-4-(4-morpholinylmethyl)piperidine] | 0 | – | 38 | Actv. | – | ED40 [6]: > 30 mg/kg
14 | CC(c1cccc(C(=O)c2ccccc2)c1)N1CCCCC1CN1CCOCC1.Cl.Cl (stereo not drawn) [Example 4B, 1-[1-(3-Benzoylphenyl)ethyl]-2-(4-morpholinylmethyl)piperidine dihydrochloride] | 16 | – | 48 | – | – | convulsions ([2]; animals affected at 15 min.): 2/8
15 | CC(c1cccc(C(=O)c2ccccc2)c1)N1CCCC(CN2CCOCC2)C1 (stereo not drawn) [Example 4C, 1-[1-(3-Benzoylphenyl)ethyl]-3-(4-morpholinylmethyl)piperidine dihydrochloride monohydrate] | 0 | – | 55 | – | – | –
16 | CC(c1cccc(C(=O)c2ccccc2)c1)N1CCCCC1CN1CCCCC1 (stereo not drawn) [Example 4D, 1-[1-(3-Benzoylphenyl)ethyl]-2-(1-piperidinylmethyl)piperidine dihydrochloride monohydrate] | 27 | – | 59 | – | – | inhibition in vivo at 324 µmol/kg [3]: 56%
17 | CC(CN1CCC(N)CC1)c1ccc(C(=O)c2ccccc2)cc1.Cl.Cl (stereo not drawn) [Example 5A, 1-[2-(4-benzoylphenyl)propyl]-4-aminopiperidine-dihydrochloride] | – | – | – | – | 42 | AED40 (Approximate Effective Dose resulting in 40% inhibition of bronchoconstriction) [6]: Inac.
18 | CC(CN1CCC(NC(=O)C2CC2)CC1)c1ccc(C(=O)c2ccccc2)cc1 (stereo not drawn) [Example 6A, 1-[2-(4-benzoylphenyl)propyl]-4-cyclopropanecarbonylaminopiperidine] | 72 | – | 77 | Weak | 16 | AEC50 (Approximate Effective Concentration resulting in 50% inhibition of allergic release of histamine) (human basophils): Inac.; ED40 [6]: 7.3 mg/kg
19 | CCCC(=O)NC1CCN(CC(C)c2ccc(C(=O)c3ccccc3)cc2)CC1 (stereo not drawn) [Example 6B, 1-[2-(4-Benzoylphenyl)propyl]-4-butyrylaminopiperidine] | 54 | – | 63 | Inac. | 16 | inhibition in vivo at 40 µmol/kg [3]: 38%; EC50 (human basophils): > 100000 nM; ED40 [6]: 2 mg/kg
20 | CC(CN1CCC(NC(=O)c2ccccc2)CC1)c1ccc(C(=O)c2ccccc2)cc1 (stereo not drawn) [Example 6C, 1-[2-(4-Benzoylphenyl)propyl]-4-benzoylaminopiperidine] | 50 | 51 | 57 | – | 23 | –
21 | CCC(=O)NC1CCN(CC(C)c2ccc(C(=O)c3ccccc3)cc2)CC1 (stereo not drawn) [Example 6E, 1-[2-(4-Benzoylphenyl)propyl]-4-propionylaminopiperidine] | – | – | – | – | – | ED40 [6]: 30 mg/kg
22 | CC(CN1CCC(NC(=O)C2CCCCC2)CC1)c1ccc(C(=O)c2ccccc2)cc1 (stereo not drawn) [Example 6I, 1-[2-(4-Benzoylphenyl)propyl]-4-cyclohexanecarbonylaminopiperidine] | – | – | – | – | – | Ba (active or inactive) [7]: Active; EC50 [8]: 2600 nM
23 | CC(=O)NC1CCN(CC(C)c2ccc(C(O)c3ccccc3)cc2)CC1 (stereo not drawn) [Example 7, 1-[2-(α-hydroxy-4-benzylphenyl)propyl]-4-acetylaminopiperidine] | – | – | – | – | – | Ba (active or inactive) [7]: Slightly Active; EC50 [8]: 2900 nM
